According to US7935817B2, “Salt form and cocrystals of adefovir dipivoxil and processes for preparation thereof” (Apotex Pharmachem Inc., priority 2008, dated 2011):
Converted amounts (≈) assume the structure as drawn. “Also recorded” adds a separate entry of the source. Where two headings read alike, the source gives them in different places.

How the values were obtained:
[1] = pH 7; cited from earlier work
[2] = cited from earlier work
[3] = stability studies: HPLC purity after storage at 40° C./75% relative humidity; format: physicochemical
[4] = after 1 week at 40° C./75% R.H.

CC(C)(C)C(=O)OCOP(=O)(COCCn1cnc2c(N)ncnc21)OCOC(=O)C(C)(C)C [Adefovir dipivoxil, 9-[2-[[bis[(pivaloyloxy)methoxy]phosphinyl]-methoxy]ethyl]adenine]
octanol/aqueous phosphate buffer partition coefficient (log p) [1]: 1.91 | aqueous solubility ([2]; pH 2.0): 19000 µg/mL (≈ 37.9 mM) | aqueous solubility ([2]; pH 7.2): 400 µg/mL (≈ 0.798 mM)

CC(C)(C)C(=O)OCOP(=O)(COCCn1cnc2c(N)ncnc21)OCOC(=O)C(C)(C)C [amorphous adefovir dipivoxil, 9-[2-[[bis[(pivaloyloxy)methoxy]phosphinyl]-methoxy]ethyl]adenine]
decrease of HPLC purity [3, 4]: more than 1% | decrease of HPLC purity ([3]; after 2 weeks at 40° C./75% R.H.): 2% | decrease of HPLC purity per week ([3]; storage at 40° C./75% relative humidity, over 2 weeks): 1 % per week

CC(C)(C)C(=O)OCOP(=O)(COCCn1cnc2c(N)ncnc21)OCOC(=O)C(C)(C)C.NC(=O)c1cccnc1 [ADE:NIC, adefovir dipivoxil:nicotinamide]
decrease of HPLC purity [3, 4]: no decrease; also recorded: unchanged | decrease of HPLC purity ([3]; after 4 weeks at 40° C./75% R.H.): 0.06%
